Results as given in patent publication US20230146395A1, “Substituted Pyrimidines and Uses Thereof” (Verge Analytics, Inc., priority 2020, published 2023).
Structures can show the parent of a compound that is named as a salt.

Target: T1, Full length human recombinant PIKFYVE (Homo sapiens, UniProt Q9Y2I7)
T1 construct: Full length human recombinant PIKFYVE; purchased Carna Biosciences (Kobe, Japan); host or cells: baculovirus expression system
Test: Inhibition of PIKfyve (microfluidic electrophoresis kinase assay, PI3P/PS substrate)
Assay type: biochemical
Details: 12 concentrations
Procedure, shortened: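 GST-tagged full-length human PIKFYVE (baculovirus; 2 nM) with fluorescent PI3P/PS (1 μM PI3P) and […] in pH 7.5 HEPES with Mg2+/Mn2+, 1% DMSO, 3 h at room temperature. PI(3,5)P product/substrate ratio read by microfluidic electrophoresis; 12-point % inhibition versus no-enzyme and DMSO controls.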

T1 sequence (Q9Y2I7 whole entry): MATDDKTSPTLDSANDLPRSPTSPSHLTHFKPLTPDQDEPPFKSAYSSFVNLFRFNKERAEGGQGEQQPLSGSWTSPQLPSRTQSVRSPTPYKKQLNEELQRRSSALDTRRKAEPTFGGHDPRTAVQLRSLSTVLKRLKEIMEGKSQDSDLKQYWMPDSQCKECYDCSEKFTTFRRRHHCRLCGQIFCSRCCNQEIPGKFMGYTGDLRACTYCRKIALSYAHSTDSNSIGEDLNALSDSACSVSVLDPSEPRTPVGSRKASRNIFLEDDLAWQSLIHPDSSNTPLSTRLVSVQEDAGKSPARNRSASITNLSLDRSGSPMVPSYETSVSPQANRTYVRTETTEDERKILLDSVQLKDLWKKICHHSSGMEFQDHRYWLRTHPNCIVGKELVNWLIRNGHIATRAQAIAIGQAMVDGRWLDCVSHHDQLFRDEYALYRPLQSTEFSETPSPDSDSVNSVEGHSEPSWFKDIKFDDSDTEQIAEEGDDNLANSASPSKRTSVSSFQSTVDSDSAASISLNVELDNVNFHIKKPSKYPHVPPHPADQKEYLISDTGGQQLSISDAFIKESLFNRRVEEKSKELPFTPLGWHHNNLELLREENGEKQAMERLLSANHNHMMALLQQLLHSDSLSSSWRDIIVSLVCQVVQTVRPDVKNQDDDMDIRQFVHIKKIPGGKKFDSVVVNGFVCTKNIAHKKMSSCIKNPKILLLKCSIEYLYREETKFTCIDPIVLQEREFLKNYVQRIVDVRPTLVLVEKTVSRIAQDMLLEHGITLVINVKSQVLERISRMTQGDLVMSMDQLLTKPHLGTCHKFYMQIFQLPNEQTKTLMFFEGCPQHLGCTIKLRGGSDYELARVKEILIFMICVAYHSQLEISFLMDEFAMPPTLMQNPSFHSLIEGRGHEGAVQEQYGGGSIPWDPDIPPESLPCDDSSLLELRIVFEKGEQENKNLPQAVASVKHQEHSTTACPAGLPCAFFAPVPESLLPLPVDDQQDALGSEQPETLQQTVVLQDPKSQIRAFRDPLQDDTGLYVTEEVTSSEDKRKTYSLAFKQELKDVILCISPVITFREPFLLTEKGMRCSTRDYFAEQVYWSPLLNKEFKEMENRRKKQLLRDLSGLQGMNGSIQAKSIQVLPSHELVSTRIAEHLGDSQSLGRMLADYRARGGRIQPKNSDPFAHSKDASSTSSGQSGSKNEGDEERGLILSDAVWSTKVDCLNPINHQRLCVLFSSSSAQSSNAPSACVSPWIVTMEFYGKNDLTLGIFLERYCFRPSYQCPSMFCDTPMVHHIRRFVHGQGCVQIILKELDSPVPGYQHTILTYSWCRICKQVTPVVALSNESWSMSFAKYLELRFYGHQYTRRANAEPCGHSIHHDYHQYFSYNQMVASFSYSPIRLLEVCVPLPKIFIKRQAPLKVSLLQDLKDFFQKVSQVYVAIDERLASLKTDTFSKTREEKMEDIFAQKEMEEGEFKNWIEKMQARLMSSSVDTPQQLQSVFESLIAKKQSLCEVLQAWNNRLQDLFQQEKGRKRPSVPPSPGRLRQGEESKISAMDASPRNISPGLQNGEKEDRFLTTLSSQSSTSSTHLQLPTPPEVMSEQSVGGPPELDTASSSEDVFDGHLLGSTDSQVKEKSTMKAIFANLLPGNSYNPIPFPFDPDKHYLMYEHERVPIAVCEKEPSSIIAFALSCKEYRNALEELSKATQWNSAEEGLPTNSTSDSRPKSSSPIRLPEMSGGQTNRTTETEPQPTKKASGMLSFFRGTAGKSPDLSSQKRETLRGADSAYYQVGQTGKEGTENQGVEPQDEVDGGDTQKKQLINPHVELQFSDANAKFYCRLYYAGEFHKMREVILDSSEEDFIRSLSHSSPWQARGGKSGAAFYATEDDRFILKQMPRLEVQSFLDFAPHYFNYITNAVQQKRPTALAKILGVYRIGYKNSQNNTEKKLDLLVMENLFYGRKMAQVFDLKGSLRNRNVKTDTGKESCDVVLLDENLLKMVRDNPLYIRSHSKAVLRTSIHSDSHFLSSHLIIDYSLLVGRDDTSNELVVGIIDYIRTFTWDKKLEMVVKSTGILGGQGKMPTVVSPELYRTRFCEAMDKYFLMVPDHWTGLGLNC

IC50	Structure (SMILES)
> 20000 nM	Cc1cccc(-c2cnn(-c3nc(N4CC(F)(F)OC(F)(F)C4)c4oc(-c5cccnc5)cc4n3)c2)c1 [Compound 133, 6-(pyridin-3-yl)-4-(2,2,6,6-tetrafluoromorpholino)-2-(4-(m-tolyl)-1H-pyrazol-1-yl)furo[3,2-d]pyrimidine]
> 10000 nM	Cc1cc(Nc2nc(N3CCOCC3)c3occc3n2)[nH]n1 [Compound 9, N-(5-methyl-1H-pyrazol-3-yl)-4-morpholino-furo[3,2-d]pyrimidin-2-amine, hydrogen chloride]
677 nM	c1ccc(-c2cc3nc(Nc4cc(-c5ccncc5)n[nH]4)nc(N4CCOCC4)c3o2)nc1 [Compound 28, 4-morpholino-6-(pyridin-2-yl)-N-(3-(pyridin-4-yl)-1H-pyrazol-5-yl) furo[3,2-d] pyrimidin-2-aminehydrochloride]
20.8 nM	Cc1cc(-c2cc3nc(-n4ccc(-c5ccccc5)n4)nc(N4CCOCC4)c3o2)sn1 [Compound 211, 6-(3-methylisothiazol-5-yl)-4-morpholino-2-(3-phenylpyrazol-1-yl)furo[3,2-d]pyrimidine]
1000 nM	c1ccc(-c2cc(Nc3nc(N4CCOCC4)c4oc(CN5CCCC5)cc4n3)[nH]n2)cc1 [Compound 16]
47 nM	NC(=O)c1cc2nc(Nc3cc(-c4ccccc4)n[nH]3)nc(N3CCOCC3)c2o1 [Compound 52, 4-morpholino-2-((3-phenyl-1H-pyrazol-5-yl)amino)furo[3,2-d]pyrimidine-6-carboxamide hydrochloride]
2.5 nM	O=C(NCC1CC1)c1cc2nc(Nc3cc(-c4ccccc4)[nH]n3)nc(N3CCOCC3)c2o1 [Compound 61, N-(cyclopropylmethyl)-4-morpholino-2-[(5-phenyl-1H-pyrazol-3-yl)amino]furo[3,2-d]pyrimidine-6-carboxamide, hydrogen chloride]
88 nM	c1ccn2nc(Nc3nc(N4CCOCC4)c4oc(-c5ccncc5)cc4n3)cc2c1 [Compound 51, 4-morpholino-N-pyrazolo[1,5-a]pyridin-2-yl-6-(4-pyridyl)furo[3,2-d]pyrimidin-2-amine, hydrogen chloride]
956 nM	FC(F)(F)Oc1cccc(-c2cc(Nc3nc(N4CCOCC4)c4oc(-c5ccncc5)cc4n3)[nH]n2)c1 [Compound 25, 4-morpholino-6-(4-pyridyl)-N-[5-[3-(trifluoromethoxy)phenyl]-1H-pyrazol-3-yl]furo[3,2-d]pyrimidin-2-amine, hydrogen chloride]
59.5 nM	Cc1cccc(-c2cc(Nc3nc(N4CCOCC4)c4occc4n3)[nH]n2)c1 [Compound 8, 4-morpholino-N-[5-(m-tolyl)-1H-pyrazol-3-yl]furo[3,2-d]pyrimidin-2-amine, hydrogen chloride]
446 nM	CN1CCC(NC(=O)c2cc3nc(-n4ccc(-c5ccccc5)n4)nc(N4CCOCC4)c3o2)CC1 [Compound 151, N-(1-methyl-4-piperidyl)-4-morpholino-2-(3-phenylpyrazol-1-yl)furo[3,2-d]pyrimidine-6-carboxamide]
3.8 nM	Cc1cccc(-c2ccn(-c3nc(N4CCOCC4)c4oc(-c5cc(C)ns5)cc4n3)n2)c1 [Compound 210, 6-(3-methylisothiazol-5-yl)-4-morpholino-2-[3-(m-tolyl)pyrazol-1-yl]furo[3,2-d]pyrimidine]
847 nM	CN(C)Cc1cc2nc(Nc3cc(-c4ccccc4)n[nH]3)nc(N3CCOCC3)c2o1 [Compound 14]
> 20000 nM	CCNC(=O)c1cc2nc(-n3cc(-c4cccc(C)c4)cn3)nc(N3CC(F)(F)OC(F)(F)C3)c2o1 [Compound 134, N-ethyl-4-(2,2,6,6-tetrafluoromorpholino)-2-(4-(m-tolyl)-1H-pyrazol-1-yl)furo[3,2-d]pyrimidine-6-carboxamide]
11.8 nM	Cc1cc(-c2cc3nc(-n4cc(-c5ccccc5)cn4)nc(N4CCOCC4)c3o2)nn1CCN(C)C [Compound 183, N,N-dimethyl-2-[5-methyl-3-[4-morpholino-2-(4-phenylpyrazol-1-yl)furo[3,2-d]pyrimidin-6-yl]pyrazol-1-yl]ethanamine]
1430 nM	Cc1c(C(=O)NC2CC2)oc2c(N3CCOCC3)nc(-n3ccc(-c4ccccc4)n3)nc12 [Compound 184, N-cyclopropyl-7-methyl-4-morpholino-2-(3-phenylpyrazol-1-yl)furo[3,2-d]pyrimidine-6-carboxamide]
224 nM	c1cc(-c2cc3nc(Nc4cc(C5CCCC5)n[nH]4)nc(N4CCOCC4)c3o2)ccn1 [Compound 74, N-(5-cyclopentyl-1H-pyrazol-3-yl)-4-morpholino-6-(pyridin-4-yl)furo[3,2-d]pyrimidin-2-amine, hydrogen chloride]
9.8 nM	c1ccc(-c2ccn(-c3nc(N4CCOCC4)c4oc(-c5cn[nH]c5)cc4n3)n2)cc1 [Compound 209, 4-morpholino-2-(3-phenylpyrazol-1-yl)-6-(1H-pyrazol-4-yl)furo[3,2-d]pyrimidine]
49.3 nM	O=C(NCC1CC1)c1cc2nc(-n3cc(-c4ccccc4)cn3)nc(N3CCOCC3)c2o1 [Compound 116, N-(cyclopropylmethy 1)-4-morpholino-2-(4-phenyl-1H-pyrazol-1-yl)furo[3,2-d]pyrimidine-6-carboxamide]

IC50	Structure (SMILES)
61 nM	CNC(=O)c1cc2nc(Nc3cc(-c4ccsc4)n[nH]3)nc(N3CCOCC3)c2o1 [Compound 86, N-methyl-4-morpholino-2-((5-(thiophen-3-yl)-1H-pyrazol-3-yl)amino)furo[3,2-d]pyrimidine-6-carboxamide, hydrogen chloride]
62.1 nM	CN(C)CCCNC(=O)c1cc2nc(-n3cc(-c4ccccc4)cn3)nc(N3CCOCC3)c2o1 [Compound 168, N-(3-(dimethylamino)propyl)-4-morpholino-2-(4-phenyl-1H-pyrazol-1-yl)furo[3,2-d]pyrimidine-6-carboxamide]
0.1 nM	c1ccc(-c2cc(Nc3nc(N4CCOCC4)c4oc(-c5ccccn5)cc4n3)[nH]n2)cc1 [Compound 26, 4-morpholino-N-(5-phenyl-1H-pyrazol-3-yl)-6-(2-pyridyl)furo[3,2-d]pyrimidin-2-amine, hydrogen chloride]
311 nM	COCCNC(=O)c1cc2nc(-n3cc(-c4ccccc4)cn3)nc(N3CCOCC3)c2o1 [Compound 118, N-(2-methoxyethyl)-4-morpholino-2-(4-phenyl-1H-pyrazol-1-yl)furo[3,2-d]pyrimidine-6-carboxamide]
71 nM	CN1CCN(Cc2cc3nc(Nc4cc(-c5ccccc5)n[nH]4)nc(N4CCOCC4)c3o2)CC1 [Compound 15]
1 nM	Cc1cccc(-c2cc(Nc3nc(N4CCOCC4)c4oc(-c5ccccn5)cc4n3)[nH]n2)c1 [Compound 27, 4-morpholino-N-[5-(m-tolyl)-1H-pyrazol-3-yl]-6-(2-pyridyl)furo[3,2-d]pyrimidin-2-amine, hydrogen chloride]
73 nM	CN(CC1CC1)C(=O)c1cc2nc(Nc3cc(-c4ccccc4)[nH]n3)nc(N3CCOCC3)c2o1 [Compound 62, N-(cyclopropylmethyl)-N-methyl-4-morpholino-2-[(5-phenyl-1H-pyrazol-3-yl)amino]furo[3,2-d]pyrimidine-6-carboxamide, hydrogen chloride]
33 nM	CNC(=O)c1cc2nc(Nc3cc(-c4ccccc4)[nH]n3)nc(N3CCOCC3)c2o1 [Compound 138, N-methyl-4-morpholino-2-((5-phenyl-1H-pyrazol-3-yl)amino)furo[3,2-d]pyrimidine-6-carboxamide]
928 nM	O=C(c1cc2nc(-n3cc(-c4ccccc4)cn3)nc(N3CCOCC3)c2o1)N1CCC1 [Compound 67, azetidin-1-yl(4-morpholino-2-(4-phenyl-1H-pyrazol-1-yl)furo[3,2-d]pyrimidin-6-yl)methanone]
59.4 nM	Cc1c(-c2ccncc2)oc2c(N3CCOCC3)nc(-n3ccc(-c4ccccc4)n3)nc12 [Compound 181, 7-methyl-4-morpholino-2-(3-phenylpyrazol-1-yl)-6-(4-pyridyl)furo[3,2-d]pyrimidine]
23.5 nM	Cc1cc(-c2cc3nc(-n4cc(-c5ccccc5)cn4)nc(N4CCOCC4)c3o2)[nH]n1 [Compound 163, 6-(3-methyl-1H-pyrazol-5-yl)-4-morpholino-2-(4-phenylpyrazol-1-yl)furo[3,2-d]pyrimidine]
4.3 nM	O=C(NC1CC1)c1cc2nc(Nc3cc(-c4ccccc4)[nH]n3)nc(N3CCOCC3)c2o1 [Compound 59]
95 nM	CONC(=O)c1cc2nc(Nc3cc(-c4ccccc4)[nH]n3)nc(N3CCOCC3)c2o1 [Compound 58, N-methoxy-4-morpholino-2-[(5-phenyl-1H-pyrazol-3-yl)amino]furo[3,2-d]pyrimidine-6-carboxamide, hydrogen chloride]
37 nM	Cc1cccc(-c2cc(Nc3nc(N4CCOCC4)c4oc(C5CCCN(C)C5)cc4n3)[nH]n2)c1 (centres unmarked) [Compound 36]
6 nM	Brc1cccc(-c2ccn(-c3nc(N4CCOCC4)c4oc(-c5ccccn5)cc4n3)n2)c1 [Compound 186, 2-[3-(3-bromophenyl)pyrazol-1-yl]-4-morpholino-6-(2-pyridyl)furo[3,2-d]pyrimidine]
37.8 nM	O=C(NC1CCOC1)c1cc2nc(-n3cc(-c4ccccc4)cn3)nc(N3CCOCC3)c2o1 (centres unmarked) [Compound 172, 4-morpholino-2-(4-phenylpyrazol-1-yl)-N-tetrahydrofuran-3-yl-furo[3,2-d]pyrimidine-6-carboxamide]
1.3 nM	Cc1cccc(-c2ccn(-c3nc(N4CCOCC4)c4oc(-c5cnn(C)c5)cc4n3)n2)c1 [Compound 205, 6-(1-methylpyrazol-4-yl)-4-morpholino-2-[3-(m-tolyl)pyrazol-1-yl]furo[3,2-d]pyrimidine]
131 nM	CN1CCC(c2cc3nc(Nc4cc(-c5ccccc5)n[nH]4)nc(N4CCOCC4)c3o2)C1 (centres unmarked) [Compound 38]
88.8 nM	CN1CCC(NC(=O)c2cc3nc(-n4cc(-c5ccccc5)cn4)nc(N4CCOCC4)c3o2)CC1 [Compound 157, N-(1-methylpiperidin-4-yl)-4-morpholino-2-(4-phenyl-1H-pyrazol-1-yl)furo[3,2-d]pyrimidine-6-carboxamide]
